What was measured:
[1] = Thermal storage stability under Army Regulation (AR) 70-38 test conditions; assay type: physicochemical
Method: Unexpectedly, unlike all peroxide materials, we found potassium ferrate(VI) to be thermally stable as defined by Army Regulation (AR) 70-38 test conditions. Therefore potassium ferrate(VI) was determined to be stable to storage for long periods, at least 98 days at 71° C., and at least 82 days under conditions of cycling daily from 23° C. to 71° C. and back again. […] In these tests, losses with time varied slightly with test vials ranging from <1% to 10% (±3%) loss respectively after the test periods given.

[2] = Thermal stability of sodium ferrate(VI) (temperature limit); assay type: physicochemical
From the text: The ferrate fiber of the present invention can disperse the ferrate formulation mentioned above into one or more suitable polymers to produce the ferrate fiber. Broadly, a formulation of the ferrate is mixed/blended with at least one nonaqueous polymer, and then the mixture can be dispersed and cooled to solidify into the fiber of the present invention. The nonaqueous polymer is defined above. A conventional extrusion method can be used to co-extrude/disperse the ferrate/polymer mixture. Preferably, the polymer is in a liquid form before blending with the ferrate formulation. The polymer can be melted into a liquid polymer before blending. The ferrate is highly oxidative so it is normally not placed in contact with any high temperature organic polymer, nor is it co-extruded/dispersed with other polymers under a relatively high temperature using a conventional extrusion method. Such blending and co-extrusion might decompose the ferrate prematurely. […] Most suitable polymers can melt at a much lower temperature. Therefore, the ferrate(VI) can be blended and then co-extruded/dispersed with one or more melted liquid polymers without causing the ferrate to decompose prematurely even using a relatively vigorous conventional extrusion method.

Molecule | stable to storage (time) ([1]; at 71° C., pure (80-100% analytical grade) or moderate purity (50-80% technical grade)) | stable to storage (time) ([1]; cycling daily from 23° C. to 71° C. and back again, pure or technical grade) | estimated storage stability ([1]; estimated from the AR 70-38 results) | stable up to (temperature) [2]
potassium ferrate(VI) | at least 98 days | at least 82 days | sufficiently stable for several years of storage | 
[Na+].[Na+].[O]=[Fe](=[O])([O-])[O-] [sodium ferrate(VI)] |  |  |  | up to 270 °C
